Results published in US8642590B2, “Alkylcyclohexylethers of dihydrotetraazabenzoazulenes” (Hoffmann-La Roche Inc., priority 2008, dated 2014).
Counter-ions that a name gives are not always drawn.

Target: T1, human V1a receptor (Homo sapiens, UniProt P37288)
T1 construct: expressed in transfected cells; host or cells: HEK293 cells, transiently transfected; cell membranes prepared
Assay: human V1a receptor binding study (3H-Vasopressin, SPA beads, HEK293 membranes)
Settings: not given
Experimental: The human V1a receptor was cloned by RT-PCR from total human liver RNA. The coding sequence was subcloned in an expression vector after sequencing to confirm the identity of the amplified sequence. […] Cell membranes were prepared from HEK293 cells transiently transfected with the expression vector and grown in 20 liter fermenters with the following protocol.
50 g of cells are resuspended in 30 ml freshly prepared ice cold Lysis buffer (50 mM HEPES, 1 mM EDTA, 10 mM magnesium dichloride adjusted to pH=7.4+complete cocktail of protease inhibitor (Roche Diagnostics)). Homogenized with Polytron for 1 min and sonicated on ice for 2×2 minutes at 80% intensity (Vibracell sonicator). The preparation is centrifuged 20 min at 500 g at 4° C., the pellet is discarded and the supernatant centrifuged 1 hour at 43,000 g at 4° C. (19,000 rpm). The pellet is resuspended in 12.5 ml Lysis buffer+12.5 ml Sucrose 20% and homogenized using a Polytron for 1-2 min. The protein concentration is determined by the Bradford method and aliquots are stored at −80° C. until use. For binding studies 60 mg Yttrium silicate SPA beads (Amersham) are mixed with an aliquot of membrane in binding buffer (50 mM Tris, 120 mM sodium chloride, 5 mM potassium chloride, 2 mM Calcium dichloride, 10 mM magnesium dichloride) for 15 minutes with mixing. 50 μl of bead/membrane mixture is then added to each well of a 96 well plate, followed by 50 μl of 4 nM 3H-Vasopressin (American Radiolabeled Chemicals). For total binding measurement 100 μl of binding buffer are added to the respective wells, for non-specific binding 100 μl of 8.4 mM cold vasopressin and for compound testing 100 μl of a serial dilution of each compound in 2% dimethyl sulfoxide. The plate is incubated 1 h at room temperature, centrifuged 1 min at 1000 g and counted on a Packard Top-Count. Non-specific binding counts are subtracted from each well and data is normalized to the maximum specific binding set at 100%. To calculate an IC 50 the curve is fitted using a non-linear regression model (XLfit) and the Ki is calculated using the Cheng-Prussoff equation.

T1 sequence (P37288 whole entry): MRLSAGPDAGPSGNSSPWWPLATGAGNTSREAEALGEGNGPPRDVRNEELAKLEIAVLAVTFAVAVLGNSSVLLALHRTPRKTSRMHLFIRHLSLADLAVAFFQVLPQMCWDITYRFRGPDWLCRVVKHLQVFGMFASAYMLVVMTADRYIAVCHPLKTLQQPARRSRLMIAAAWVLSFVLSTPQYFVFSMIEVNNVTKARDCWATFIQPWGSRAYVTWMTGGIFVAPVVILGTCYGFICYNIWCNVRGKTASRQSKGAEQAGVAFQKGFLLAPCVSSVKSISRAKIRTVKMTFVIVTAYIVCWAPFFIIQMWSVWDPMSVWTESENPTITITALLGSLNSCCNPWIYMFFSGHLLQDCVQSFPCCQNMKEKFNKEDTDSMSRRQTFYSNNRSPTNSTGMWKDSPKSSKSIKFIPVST

| SMILES | Ki [nM] |
| --- | --- |
| CC(C)(C)OC(=O)N1Cc2cc(Cl)ccc2-n2c(nnc2[C@H]2CC[C@H](OC3CCC3)CC2)C1 [Example 30, trans-8-Chloro-1-(4-cyclobutoxy-cyclohexyl)-4H,6H-2,3,5,10b-tetraaza-benzo[e]azulene-5-carboxylic acid tert-butyl ester] | 2.82 |
| CC(C)(C)OC(=O)N1Cc2cc(Cl)ccc2-n2c(nnc2[C@H]2CC[C@@H](OC3CCC3)CC2)C1 [Example 33, cis-8-Chloro-1-(4-cyclobutoxy-cyclohexyl)-4H,6H-2,3,5,10b-tetraaza-benzo[e]azulene-5-carboxylic acid tert-butyl ester] | 7.59 |
| CC(C)(C)OC(=O)N1Cc2cc(Cl)ccc2-n2c(nnc2[C@H]2CC[C@H](OC3CCCCC3)CC2)C1 [Example 39, trans-8-Chloro-1-(4-cyclohexyloxy-cyclohexyl)-4H,6H-2,3,5,10b-tetraaza-benzoazulene-5-carboxylic acid tert-butyl ester] | 6.46 |
| CC(C)(C)OC(=O)N1Cc2cc(Cl)ccc2-n2c(nnc2[C@H]2CC[C@@H](OC3CCCCC3)CC2)C1 [Example 42, cis-8-Chloro-1-(4-cyclohexyloxy-cyclohexyl)-4H,6H-2,3,5,10b-tetraaza-benzoazulene-5-carboxylic acid tert-butyl ester] | 17.8 |

Same assay, conditions: membranes of HEK293 cells transiently transfected with human V1a receptor; 3H-Vasopressin; Ki calculated using the Cheng-Prussoff equation; read-out: pKi (hV1a) (converted)

| SMILES | Ki [nM] |
| --- | --- |
| CC(C)O[C@H]1CC[C@H](c2nnc3n2-c2ccc(Cl)cc2CN(C)C3)CC1 [Example 10, trans-8-Chloro-1-(4-isopropoxy-cyclohexyl)-5-methyl-5,6-dihydro-4H-2,3,5,10b-tetraaza-benzo[e]azulene] | 2.82 |
| CC(C)O[C@H]1CC[C@H](c2nnc3n2-c2ccc(Cl)cc2CN(S(C)(=O)=O)C3)CC1 [Example 11, trans-8-Chloro-1-(4-isopropoxy-cyclohexyl)-5-methanesulfonyl-5,6-dihydro-4H-2,3,5,10b-tetraaza-benzoazulene] | 1.1 |
| CC(C)O[C@H]1CC[C@H](c2nnc3n2-c2ccc(Cl)cc2CN(CCO)C3)CC1 [Example 12, trans-2-[8-Chloro-1-(4-isopropoxy-cyclohexyl)-4H,6H-2,3,5,10b-tetraaza-benzoazulen-5-yl]-ethanol] | 2.29 |
| CC(C)O[C@H]1CC[C@H](c2nnc3n2-c2ccc(Cl)cc2CN(C(C)C)C3)CC1 [Example 13, trans-8-Chloro-1-(4-isopropoxy-cyclohexyl)-5-isopropyl-5,6-dihydro-4H-2,3,5,10b-tetraaza-benzoazulene] | 1.51 |
| CC(C)O[C@H]1CC[C@H](c2nnc3n2-c2ccc(Cl)cc2CN(S(=O)(=O)N(C)C)C3)CC1 [Example 14, trans-8-Chloro-1-(4-isopropoxy-cyclohexyl)-4H,6H-2,3,5,10b-tetraaza-benzoazulene-5-sulfonic acid dimethylamide] | 1 |
| CC(C)O[C@H]1CC[C@H](c2nnc3n2-c2ccc(Cl)cc2CN(Cc2ccccn2)C3)CC1 [Example 15, trans-8-Chloro-1-(4-isopropoxy-cyclohexyl)-5-pyridin-2-ylmethyl-5,6-dihydro-4H-2,3,5,10b-tetraaza-benzoazulene] | 1.41 |
| CC(=O)OCC(=O)N1Cc2cc(Cl)ccc2-n2c(nnc2[C@H]2CC[C@H](OC(C)C)CC2)C1 [Example 16, trans-Acetic acid 2-[8-chloro-1-(4-isopropoxy-cyclohexyl)-4H,6H-2,3,5,10b-tetraaza-benzoazulen-5-yl]-2-oxo-ethyl ester] | 3.47 |
| CC(C)O[C@H]1CC[C@H](c2nnc3n2-c2ccc(Cl)cc2CN(C(=O)CO)C3)CC1 [Example 17, trans-1-[8-Chloro-1-(4-isopropoxy-cyclohexyl)-4H,6H-2,3,5,10b-tetraaza-benzoazulen-5-yl]-2-hydroxy-ethanone] | 3.47 |
| CC(=O)N1Cc2cc(Cl)ccc2-n2c(nnc2[C@H]2CC[C@H](OC(C)C)CC2)C1 [Example 18, trans-1-[8-Chloro-1-(4-isopropoxy-cyclohexyl)-4H,6H-2,3,5,10b-tetraaza-benzoazulen-5-yl]-ethanone] | 2.51 |
| CC(C)O[C@H]1CC[C@H](c2nnc3n2-c2ccc(F)cc2CN(C(=O)OC(C)(C)C)C3)CC1 [Example 19, trans-8-Fluoro-1-(4-isopropoxy-cyclohexyl)-4H,6H-2,3,5,10b-tetraaza-benzo[e]azulene-5-carboxylic acid tert-butyl ester] | 3.8 |
| CC(C)O[C@H]1CC[C@H](c2nnc3n2-c2ccc(F)cc2CNC3)CC1 [Example 20, trans-8-Fluoro-1-(4-isopropoxy-cyclohexyl)-5,6-dihydro-4H-2,3,5,10b-tetraaza-benzo[e]azulene hydrochloride] | 251 |
| CC(C)O[C@H]1CC[C@H](c2nnc3n2-c2ccc(F)cc2CN(C)C3)CC1 [Example 21, trans-8-Fluoro-1-(4-isopropoxy-cyclohexyl)-5-methyl-5,6-dihydro-4H-2,3,5,10b-tetraaza-benzo[e]azulene] | 29.5 |
| CC(C)O[C@H]1CC[C@@H](c2nnc3n2-c2ccc(Cl)cc2CN(C(=O)OC(C)(C)C)C3)CC1 [Example 22, cis-8-Chloro-1-(4-isopropoxy-cyclohexyl)-4H,6H-2,3,5,10b-tetraaza-benzo[e]azulene-5-carboxylic acid tert-butyl ester] | 8.91 |
| CC(C)O[C@H]1CC[C@@H](c2nnc3n2-c2ccc(Cl)cc2CNC3)CC1 [Example 23, cis-8-Chloro-1-(4-isopropoxy-cyclohexyl)-5,6-dihydro-4H-2,3,5,10b-tetraaza-benzo[e]azulene hydrochloride] | 363 |
| CC(C)O[C@H]1CC[C@@H](c2nnc3n2-c2ccc(Cl)cc2CN(C)C3)CC1 [Example 24, cis-8-Chloro-1-(4-isopropoxy-cyclohexyl)-5-methyl-5,6-dihydro-4H-2,3,5,10b-tetraaza-benzo[e]azulene] | 26.9 |
| Clc1ccc2c(c1)CNCc1nnc([C@H]3CC[C@H](OC4CCC4)CC3)n1-2 [Example 31, trans-8-Chloro-1-(4-cyclobutoxy-cyclohexyl)-5,6-dihydro-4H-2,3,5,10b-tetraaza-benzo[e]azulene hydrochloride] | 10.7 |
| CN1Cc2cc(Cl)ccc2-n2c(nnc2[C@H]2CC[C@H](OC3CCC3)CC2)C1 [Example 32, trans-8-Chloro-1-(4-cyclobutoxy-cyclohexyl)-5-methyl-5,6-dihydro-4H-2,3,5,10b-tetraaza-benzo[e]azulene] | 1.29 |
| Clc1ccc2c(c1)CNCc1nnc([C@H]3CC[C@@H](OC4CCC4)CC3)n1-2 [Example 34, cis-8-Chloro-1-(4-cyclobutoxy-cyclohexyl)-5,6-dihydro-4H-2,3,5,10b-tetraaza-benzo[e]azulene hydrochloride] | 145 |
| CN1Cc2cc(Cl)ccc2-n2c(nnc2[C@H]2CC[C@@H](OC3CCC3)CC2)C1 [Example 35, cis-8-Chloro-1-(4-cyclobutoxy-cyclohexyl)-5-methyl-5,6-dihydro-4H-2,3,5,10b-tetraaza-benzo[e]azulene] | 7.94 |
| Clc1ccc2c(c1)CNCc1nnc([C@H]3CC[C@H](OC4CCCC4)CC3)n1-2 [Example 37, trans-8-Chloro-1-(4-cyclopentyloxy-cyclohexyl)-5,6-dihydro-4H-2,3,5,10b-tetraaza-benzo[e]azulene hydrochloride] | 3.47 |
| CN1Cc2cc(Cl)ccc2-n2c(nnc2[C@H]2CC[C@H](OC3CCCC3)CC2)C1 [Example 38, trans-8-Chloro-1-(4-cyclopentyloxy-cyclohexyl)-5-methyl-5,6-dihydro-4H-2,3,5,10b-tetraaza-benzo[e]azulene] | 0.794 |
| Clc1ccc2c(c1)CNCc1nnc([C@H]3CC[C@H](OC4CCCCC4)CC3)n1-2 [Example 40, trans-8-Chloro-1-(4-cyclohexyloxy-cyclohexyl)-5,6-dihydro-4H-2,3,5,10b-tetraaza-benzoazulene hydrochloride] | 34.7 |
| CN1Cc2cc(Cl)ccc2-n2c(nnc2[C@H]2CC[C@H](OC3CCCCC3)CC2)C1 [Example 41, trans-8-Chloro-1-(4-cyclohexyloxy-cyclohexyl)-5-methyl-5,6-dihydro-4H-2,3,5,10b-tetraaza-benzoazulene] | 2.88 |
| Clc1ccc2c(c1)CNCc1nnc([C@H]3CC[C@@H](OC4CCCCC4)CC3)n1-2 [Example 43, cis-8-Chloro-1-(4-cyclohexyloxy-cyclohexyl)-5,6-dihydro-4H-2,3,5,10b-tetraaza-benzoazulene hydrochloride] | 174 |
| CN1Cc2cc(Cl)ccc2-n2c(nnc2[C@H]2CC[C@@H](OC3CCCCC3)CC2)C1 [Example 44, cis-8-Chloro-1-(4-cyclohexyloxy-cyclohexyl)-5-methyl-5,6-dihydro-4H-2,3,5,10b-tetraaza-benzoazulene] | 14.1 |
